Values of other authors, collected in patent US12507891B2 (priority 2020, dated 2025).

Settings: incrementally increased propofol hypnosis

## CC(C)c1cccc(C(C)C)c1O [propofol]
  PUAL under propofol hypnosis: PUAL values remain within normal ranges until a subject becomes completely unresponsive
